Like-named read-outs stand apart in the source and are kept apart here. Peptide text beside a SMILES is read from it.
Tests used:
[1] = tested on: human red blood cells (hRBC); experiment: Hemolysis of human red blood cells; assay type: cell-based; conditions: red cells of human, 1 h
Method in brief: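 Percent hemolysis is OD540 of peptide-treated supernatant relative to water-lysed cells. Each peptide was tested at 200 μg/mL against 20% (v/v) washed human erythrocytes. Incubation was 1 h at 37 °C, 300 rpm.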

[2] = tested on: Klebsiella pneumoniae SSI3010; conditions: SSI3010
Method in brief: (§1)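 Standardized inocula (0.5 McFarland in saline, then diluted in MHII broth to approximately 5×10^5 CFU/mL) were exposed to two-fold dilution series of each peptide in the presence of polysorbate 80 (0.002% final).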

[3] = tested on: Escherichia coli ATCC 25922; conditions: ATCC 25922
Method in brief: as §1

[4] = tested on: Escherichia coli MCR-1 Af 45
Method in brief: as §1

[5] = Mueller-Hinton broth II, 18-20 hours at 35° C.

Row | SMILES | Hemolysis at 0.2 g/L [1] [%] | Klebsiella pneumoniae SSI3010 MIC [2] [µg/mL] | Escherichia coli ATCC 25922 MIC [3] [µg/mL] | Escherichia coli MCR-1 Af 45 MIC [4, 5] [µg/mL] | Escherichia coli MCR-1 Af 45 MIC ([4]; MCR-1 Af 45) [µg/mL]
1 | CC[C@H](C)[C@H](NC(=O)[C@@H]1C[C@@H](O)CN1C(=O)[C@@H](N)C(C)C)C(=O)N[C@H](C(=O)N[C@@H](Cc1ccc(O)cc1)C(=O)N[C@@H]1C(=O)N[C@@H](CC(N)=O)C(=O)N[C@@H](CCCNC(=N)N)C(=O)N[C@@H](CCN)C(=O)N[C@@H]([C@@H](C)O)C(=O)N[C@H](CCN)C(=O)N[C@@H](Cc2c[nH]c3ccccc23)C(=O)N[C@H](C(=O)N[C@@H](CCN)C(=O)N[C@@H](CCCNC(=N)N)C(=O)N[C@@H](Cc2ccc(O)cc2)C(=O)O)CSSC1(C)C)[C@@H](C)O [Example 172] (HELM PEPTIDE1{V.[Hyp].I.T.Y.[Pen].N.R.[Dab].T.[NCC[C@@H](N[*:1])C(=O)[*:2]].W.C.[Dab].R.Y}$PEPTIDE1,PEPTIDE1,6:R3-13:R3$$$V2.0) | 0 | 0.5 | 0.5 | 0.5 | 
2 | CC[C@H](C)[C@H](NC(=O)[C@@H]1C[C@@H](O)CN1C(=O)[C@@H](N)C(C)C)C(=O)N[C@H](C(=O)N[C@@H](Cc1ccc(O)cc1)C(=O)N[C@@H]1C(=O)N[C@@H](CC(N)=O)C(=O)N[C@@H](CCCNC(=N)N)C(=O)N[C@@H](CCN)C(=O)N[C@@H]([C@@H](C)O)C(=O)N[C@H](CCN)C(=O)N[C@@H](CC(N)=O)C(=O)N[C@H](C(=O)N[C@@H](CCN)C(=O)N[C@@H](CCCNC(=N)N)C(=O)N[C@@H](Cc2ccc(O)cc2)C(=O)O)CSSC1(C)C)[C@@H](C)O [Example 173] (HELM PEPTIDE1{V.[Hyp].I.T.Y.[Pen].N.R.[Dab].T.[NCC[C@@H](N[*:1])C(=O)[*:2]].N.C.[Dab].R.Y}$PEPTIDE1,PEPTIDE1,6:R3-13:R3$$$V2.0; N-terminus and C-terminus assumed) | 0 | 0.5 | 0.25 |  | 0.25
3 | CC[C@H](C)[C@H](NC(=O)[C@@H]1C[C@@H](O)CN1C(=O)[C@@H](N)C(C)C)C(=O)N[C@H](C(=O)N[C@@H](Cc1ccc(O)cc1)C(=O)N[C@@H]1C(=O)N[C@@H](CC(N)=O)C(=O)N[C@@H](CCCNC(=N)N)C(=O)N[C@@H](CCN)C(=O)N[C@@H]([C@@H](C)O)C(=O)N[C@H](CCN)C(=O)N[C@@H](CCN)C(=O)N[C@H](C(=O)N[C@@H](CCN)C(=O)N[C@@H](CCCNC(=N)N)C(=O)N[C@@H](Cc2ccc(O)cc2)C(=O)O)CSSC1(C)C)[C@@H](C)O [Example 174] (HELM PEPTIDE1{V.[Hyp].I.T.Y.[Pen].N.R.[Dab].T.[NCC[C@@H](N[*:1])C(=O)[*:2]].[Dab].C.[Dab].R.Y}$PEPTIDE1,PEPTIDE1,6:R3-13:R3$$$V2.0) | 0 | 0.25 | 0.125 | 0.0625 | 
4 | CC[C@H](C)[C@H](NC(=O)[C@@H]1C[C@@H](O)CN1C(=O)[C@@H](N)C(C)C)C(=O)N[C@H](C(=O)N[C@@H](Cc1ccc(O)cc1)C(=O)N[C@@H]1C(=O)N[C@@H](CC(N)=O)C(=O)N[C@@H](CCCNC(=N)N)C(=O)N[C@@H](CCN)C(=O)N[C@@H]([C@@H](C)O)C(=O)N[C@H](CCN)C(=O)N[C@@H](CCCCN)C(=O)N[C@H](C(=O)N[C@@H](CCN)C(=O)N[C@@H](CC(C)C)C(=O)N[C@@H](Cc2ccc(O)cc2)C(=O)O)CSSC1(C)C)[C@@H](C)O [Example 175] (HELM PEPTIDE1{V.[Hyp].I.T.Y.[Pen].N.R.[Dab].T.[NCC[C@@H](N[*:1])C(=O)[*:2]].K.C.[Dab].L.Y}$PEPTIDE1,PEPTIDE1,6:R3-13:R3$$$V2.0) | 0 | 0.5 | 0.25 | 0.25 | 
5 | CC[C@H](C)[C@H](NC(=O)[C@@H]1C[C@@H](O)CN1C(=O)[C@@H](N)C(C)C)C(=O)N[C@H](C(=O)N[C@@H](Cc1ccc(O)cc1)C(=O)N[C@@H]1C(=O)N[C@@H](CC(N)=O)C(=O)N[C@@H](CCCNC(=N)N)C(=O)N[C@@H](CCN)C(=O)N[C@@H]([C@@H](C)O)C(=O)N[C@H](CCN)C(=O)N[C@@H](CCCCN)C(=O)N[C@H](C(=O)N[C@@H](CCN)C(=O)N[C@@H](CO)C(=O)N[C@@H](Cc2ccc(O)cc2)C(=O)O)CSSC1(C)C)[C@@H](C)O [Example 176] (HELM PEPTIDE1{V.[Hyp].I.T.Y.[Pen].N.R.[Dab].T.[NCC[C@@H](N[*:1])C(=O)[*:2]].K.C.[Dab].S.Y}$PEPTIDE1,PEPTIDE1,6:R3-13:R3$$$V2.0) | 0 | 0.5 | 0.25 | 0.25 | 
6 | CC[C@H](C)[C@H](NC(=O)[C@@H]1C[C@@H](O)CN1C(=O)[C@@H](N)C(C)C)C(=O)N[C@H](C(=O)N[C@@H](Cc1ccc(O)cc1)C(=O)N[C@@H]1C(=O)N[C@@H](CC(N)=O)C(=O)N[C@@H](CCCNC(=N)N)C(=O)N[C@@H](CCN)C(=O)N[C@@H]([C@@H](C)O)C(=O)N[C@H](CCN)C(=O)N[C@@H](CCCCN)C(=O)N[C@H](C(=O)N[C@@H](CCN)C(=O)N[C@@H](CCN)C(=O)N[C@@H](Cc2ccc(O)cc2)C(=O)O)CSSC1(C)C)[C@@H](C)O [Example 177] (HELM PEPTIDE1{V.[Hyp].I.T.Y.[Pen].N.R.[Dab].T.[NCC[C@@H](N[*:1])C(=O)[*:2]].K.C.[Dab].[Dab].Y}$PEPTIDE1,PEPTIDE1,6:R3-13:R3$$$V2.0) | 0 | 0.25 | 0.125 | 0.125 | 
7 | CC[C@H](C)[C@H](NC(=O)[C@@H]1C[C@@H](O)CN1C(=O)[C@@H](N)C(C)C)C(=O)N[C@H](C(=O)N[C@@H](Cc1ccc(O)cc1)C(=O)N[C@@H]1C(=O)N[C@@H](CC(N)=O)C(=O)N[C@@H](CCCNC(=N)N)C(=O)N[C@@H](CCN)C(=O)N[C@@H]([C@@H](C)O)C(=O)N[C@H](CCN)C(=O)N[C@@H](CCCCN)C(=O)N[C@H](C(=O)N[C@@H](CCN)C(=O)N[C@@H](CCCCN)C(=O)N[C@@H](Cc2ccc(O)cc2)C(=O)O)CSSC1(C)C)[C@@H](C)O [Example 178] (HELM PEPTIDE1{V.[Hyp].I.T.Y.[Pen].N.R.[Dab].T.[NCC[C@@H](N[*:1])C(=O)[*:2]].K.C.[Dab].K.Y}$PEPTIDE1,PEPTIDE1,6:R3-13:R3$$$V2.0) | 0 | 0.5 | 0.25 | 0.125 | 
8 | CC[C@H](C)[C@H](NC(=O)[C@@H]1C[C@@H](O)CN1C(=O)[C@@H](N)C(C)C)C(=O)N[C@H](C(=O)N[C@@H](Cc1ccc(O)cc1)C(=O)N[C@@H]1C(=O)N[C@@H](CC(N)=O)C(=O)N[C@@H](CCCNC(=N)N)C(=O)N[C@@H](CCN)C(=O)N[C@@H]([C@@H](C)O)C(=O)N[C@H](CCN)C(=O)N[C@@H](CCCCN)C(=O)N[C@H](C(=O)N[C@@H](CCN)C(=O)N[C@@H](CCCN)C(=O)N[C@@H](Cc2ccc(O)cc2)C(=O)O)CSSC1(C)C)[C@@H](C)O [Example 179] (HELM PEPTIDE1{V.[Hyp].I.T.Y.[Pen].N.R.[Dab].T.[NCC[C@@H](N[*:1])C(=O)[*:2]].K.C.[Dab].[Orn].Y}$PEPTIDE1,PEPTIDE1,6:R3-13:R3$$$V2.0) | 0 | 0.25 | 0.125 | 0.0625 | 
9 | CC[C@H](C)[C@H](NC(=O)[C@@H]1C[C@@H](O)CN1C(=O)[C@@H](N)C(C)C)C(=O)N[C@H](C(=O)N[C@@H](Cc1ccc(O)cc1)C(=O)N[C@@H]1C(=O)N[C@@H](CC(N)=O)C(=O)N[C@@H](CCCNC(=N)N)C(=O)N[C@@H](CCN)C(=O)N[C@@H]([C@@H](C)O)C(=O)N[C@H](CCN)C(=O)N[C@@H](CCCNC(N)=O)C(=O)N[C@H](C(=O)N[C@@H](CCN)C(=O)N[C@@H](CCCNC(=N)N)C(=O)N[C@@H](Cc2ccc(O)cc2)C(=O)O)CSSC1(C)C)[C@@H](C)O [Example 180] (HELM PEPTIDE1{V.[Hyp].I.T.Y.[Pen].N.R.[Dab].T.[NCC[C@@H](N[*:1])C(=O)[*:2]].[Cit].C.[Dab].R.Y}$PEPTIDE1,PEPTIDE1,6:R3-13:R3$$$V2.0) | 1 | 0.5 | 0.25 | 0.25 | 
10 | CC[C@H](C)[C@H](NC(=O)[C@@H]1C[C@@H](O)CN1C(=O)[C@@H](NC)C(C)C)C(=O)N[C@H](C(=O)N[C@@H](Cc1ccc(O)cc1)C(=O)N[C@@H]1C(=O)N[C@@H](CC(N)=O)C(=O)N[C@@H](CCCNC(=N)N)C(=O)N[C@@H](CCN)C(=O)N[C@@H]([C@@H](C)O)C(=O)N[C@H](CCN)C(=O)N[C@@H](CCCCN)C(=O)N[C@H](C(=O)N[C@@H](CCN)C(=O)N[C@@H](CCCNC(=N)N)C(=O)N[C@@H](Cc2ccc(O)cc2)C(=O)O)CSSC1(C)C)[C@@H](C)O [Example 181] (HELM PEPTIDE1{[meV].[Hyp].I.T.Y.[Pen].N.R.[Dab].T.[NCC[C@@H](N[*:1])C(=O)[*:2]].K.C.[Dab].R.Y}$PEPTIDE1,PEPTIDE1,6:R3-13:R3$$$V2.0) | 0 | 0.25 | 0.125 | 0.125 | 
